Data set [1] in a line: Compound stability in whole mouse blood. Format: in vitro ADME. To be noted: fresh mouse blood, initial concentration 1.44 μM, 37° C., test (parent) compound at 4 h. The method, then:
Compounds were also evaluated for stability in whole mouse blood. A sample of test compound in fresh mouse blood (at a concentration of 1.44 μM) was incubated at 37° C. for 4 h. An aliquot of the sample was withdrawn, at time 5 min. and time 4 h, for concentration analysis on a LC-MS/MS instrument after converting the blood sample to an analytical sample employing standard sample preparation procedures. The detailed recovery of the compound was not fully evaluated and optimized. The sample was analyzed for the parent compound and the therapeutic compound.

Data set [2] is described as follows: Pharmacokinetic study in ICR mice, oral (FIGS. 1 and 2). Format: in vivo. Conditions: for concentration of metabolite (2-carboxy-1-ethanesulfonic acid) in plasma compared to 3APS (of natural abundance): 0.72 mmol/kg, 2 h; for drug metabolism compared to 3APS (of natural abundance) / plasma drug exposure compared to 3APS (of natural abundance): mole-equivalent dose (0.72 mmol/kg). The protocol:
A compound according to the invention is dissolved in water at a concentration determined by the desired dose and dosing volume for the specific animal to which the compound is to be administered. A calculated volume of dosing solution is administered to the animal (PO, SQ, IP, or IV). A blood sample is collected following administration of the compound at specific time points (such as 10 min., 30 min., 1 h, 2 h, 4 h, 8 h, and 12 h). The blood sample is converted to a plasma sample using standard techniques. A brain sample can also be collected after complete perfusion. The plasma and/or brain samples are analyzed to determine the concentration of relevant compounds (including e.g., administered compounds, therapeutic compounds (e.g., drugs) and metabolites).
(§1) Forty-two male ICR mice, body-weight of 19 to 21 g, are randomized into 7 groups. The animals are administered with an aqueous solution of a test compound by oral gavage. Blood samples are collected into tubes pre-loaded with heparin anticoagulating agent, at time 0.167, 0.5, 1, 2, 4, 8, and 12 h after administration. Blood samples are centrifuged, and plasma samples are isolated for analysis of the test compound (including compounds administered, metabolites, and/or prodrugs). A 400 μL blood sample is collected from each animal, and then the animal is put to sleep with barbiturate anesthesia; perfusion is performed (through the main vein of the heart) with saline at a rate of 5 mL/min., for 6 min. The brain is collected and kept at −40° C. until the sample is analyzed. The protein in the plasma is precipitated and the analytical sample is analyzed on an AB4000-Q-Trap UPLC-MS/MS instrument.

Data set [3] in a line: Compound stability in simulated gastric fluid (SGF). Format: in vitro ADME. Conditions: 400 μg/mL, 37° C., percentage of initial concentration, LC-MS/MS. The method, then:
Compounds were evaluated for stability in simulated gastric fluid (SGF). A solution of a compound in SGF (400 μg/mL) was incubated at 37° C. for 4 h. An aliquot of the sample was withdrawn, at time 0 and time 4 h, for concentration analysis on a LC-MS/MS instrument. The initial concentration (at time 0) of a compound was considered as 1, and the remaining concentration of the compound at 4-h time point was calculated and expressed as the percentage of the initial concentration.

A short description of data set [4]: Pharmacokinetic study in C57Bl6 mice. Format: in vivo. More on the design: AUC(0-t): concentration or dose not given beside the values. Conditions: mouse, oral gavage, plasma, prodrug; for AUC(0-t): read-out: Prodrug AUCt; for half-life: read-out: Prodrug T1/2 (converted). The protocol:
as §1
Pharmacokinetic studies were performed in C57B16 mice. The experiments were done using the same protocol described in Example 20. For each compound, 42 animals were used (6 animals per time point, and 7 time points distributed at 10 min, 0.5, 1, 2, 4, 8 and 12 h).

Entries after “also recorded” stand apart in the source; their conditions may differ. Structures can show the parent of a compound that is named as a salt.

This is an account of results in patent publication US10954188B2, “Isotope-enriched 3-amino-1-propanesulfonic acid derivatives and uses thereof” (RISEN (SUZHOU) PHARMA TECH CO., LTD., priority 2017, dated 2021).

As a reminder, the Cmax is the maximum level reached in the sampled fluid or tissue. As for `[2H]C([2H])(CCS(=O)(=O)O)NC(=O)[C@@H](N)C(C)C` [Compound 4, 3-((L-valyl)amino)-3,3-dideuterium-1-propanesulfonic acid], the “Compound conc. (μM) at 4 h” value in data set [1] amounted to 0.74 µM. In data set [2], the “concentration of metabolite (2-carboxy-1-ethanesulfonic acid) in plasma compared to 3APS (of natural abundance)” value is “much lower”, the “drug metabolism compared to 3APS (of natural abundance)” value was “delayed drug metabolism” and the “plasma drug exposure compared to 3APS (of natural abundance)” value is “improved plasma drug exposure significantly; also recorded: even greater improvement of drug exposure”. Moreover, in data set [2] (plasma), the “conversion of prodrug to compound 1 in the subject” value was “converted easily to 1”. In data set [3], the “Remaining (%) at 4 h” value is 107%. In data set [4], the Cmax turned out to be 39500 ng/mL, the AUC(0-t) turned out to be 38000 ng·h/mL and the half-life was 1.5 h.
As for `[2H]C([2H])(N)CCS(=O)(=O)O` [Compound 1, 3-amino-3,3-dideuterium-1-propanesulfonic acid], the “Compound conc. (μM) at 4 h” value in data set [1] amounted to 0.98 µM. Further, in data set [2], the “concentration of metabolite (2-carboxy-1-ethanesulfonic acid) in plasma compared to 3APS (of natural abundance)” value is listed as “much lower”, the “drug metabolism compared to 3APS (of natural abundance)” value was “delayed drug metabolism; also recorded: delayed metabolic profile” and the “plasma drug exposure compared to 3APS (of natural abundance)” value was “improved plasma drug exposure significantly”. Moreover, in data set [3], the “Remaining (%) at 4 h” value is “(100) %”.
As for `[2H]C([2H])(CCS(=O)(=O)O)NC(=O)[C@@H](N)CO` [Compound 3, 3-(L-serylamino)-3,3,-dideuterium-1-propanesulfonic acid], in data set [4], the Cmax was found to be 22300 ng/mL, the AUC(0-t) is 44700 ng·h/mL and the half-life is 1.9 h.
As to `N[C@@H](Cc1ccccc1)C(=[18O])NCCCS(=O)(=O)O` [Compound 16], the “Compound conc. (μM) at 4 h” value in data set [1] was 0.74 µM. In data set [3], the “Remaining (%) at 4 h” value was 96%. For the same molecule, in data set [4], the peak concentration (Cmax) was found to be 3840 ng/mL, the AUC(0-t) stood at 11900 ng·h/mL and the half-life is 1.5 h.
Regarding `[2H]C([2H])(CCS(=O)(=O)O)NC(=O)[C@H](C)N` [Compound 2, 3-((L-alanyl)amino)-3,3-dideuterium-1-propanesulfonic acid], the “Compound conc. (μM) at 4 h” value in data set [1] turned out to be 0.18 µM. In data set [4], the highest concentration (Cmax) is 472 ng/mL, the AUC(0-t) was 348 ng·h/mL and the half-life was 0.6 h.
As for `[2H]C([2H])(CCS(=O)(=O)O)NC(=[18O])[C@@H](N)C(C)C` [Compound 29, 3-((^18O-L-valyl)amino)-3,3-dideuterium-1-propanesulfonic acid], in data set [1], the “Compound conc. (μM) at 4 h” value turned out to be 0.80 µM.
Consider `[2H]C([2H])(CCS(=O)(=O)O)NC(=O)[C@@H](N)Cc1ccccc1` [Compound 5, 3-((L-phenylalanyl)amino)-3,3-dideuterium-1-propanesulfonic acid], for which the “Compound conc. (μM) at 4 h” value in data set [1] came out at 0.03 µM. The “Remaining (%) at 4 h” value in data set [3] is recorded as 99%. Further, in data set [4], the Cmax was determined as 1090 ng/mL, the AUC(0-t) was found to be 782 ng·h/mL and the half-life was 0.4 h.
Regarding `[2H]C([2H])(CCS(=O)(=O)O)NC(=O)[C@@H](N)Cc1c[nH]cn1` [Compound 6, 3-((L-histidyl)amino)-3,3-dideuterium-1-propanesulfonic acid hydrochloride], in data set [4], the maximum concentration (Cmax) was found to be 9920 ng/mL, the AUC(0-t) was 16600 ng·h/mL and the half-life was 1.4 h.
Regarding `CC(C)[C@H](N)C(=[18O])NCCCS(=O)(=O)O` [Compound 15, 3-((^18O-L-valyl)amino)-1-propanesulfonic acid], the “Compound conc. (μM) at 4 h” value in data set [1] is 0.78 µM. For the same molecule, the “Remaining (%) at 4 h” value in data set [3] is on record as 104%.
For the molecule `C[C@H](N)C(=[18O])NCCCS(=O)(=O)O` [Compound 13, 3-((^18O-L-alanyl)amino)-1-propanesulfonic acid], in data set [4], the maximum concentration (Cmax) came to 672 ng/mL, the AUC(0-t) came to 1830 ng·h/mL and the half-life was 0.5 h.
Turning to `N[C@@H](Cc1c[nH]cn1)C(=[18O])NCCCS(=O)(=O)O` [Compound 17, 3-((^18O-L-histidyl)amino)-1-propanesulfonic acid hydrobromide], the “Compound conc. (μM) at 4 h” value in data set [1] was determined as 1.20 µM. Also, in data set [3], the “Remaining (%) at 4 h” value is given as 101%. In data set [4], the Cmax stood at 19000 ng/mL, the AUC(0-t) was 14200 ng·h/mL and the half-life was 1.1 h.
